# In patent EP4737449A1 (Changchun Genescience Pharmaceutical Co., Ltd., priority 2023, dated 2025):
# Molecular target: T1, p53-Y220C mutant protein (Homo sapiens, UniProt P04637, Y220C)
# T1 construct: The recombinant Y220C p53 DBD protein with his-tag
# Experiment: In vitro DNA binding activity assay (TR-FRET)
# Format: biochemical
# Settings: concentration required to increase the binding activity of protein to DNA by 50%
# Protocol: The activity of the compound to modulate the binding of the p53-Y220C mutant protein to DNA was detected using TR-FREt (Time-Resolved Fluorescence Resonance Energy Transfer). The recombinant Y220C p53 DBD protein with his-tag and the DNA sequence with biotin label were prepared firstly. Donor Eu(Europium)-SA(Streptavidin) can be bound to the DNA sequence through biotin, receptor for his antibody attached to alphaphycocyanin(APC, allophycocyanin), and his antibody can be bound to the Y220C p53 DBD protein with his-tag. When exposed to an excitation light with a wavelength of 340 nm, the donor Eu(Europium)-SA(Streptavidin) can emit fluorescence with a wavelength of 615 nm. If the donor and the receptor are close to each other, the donor will transfer part of the energy to the receptor and produce fluorescence with a wavelength of 665 nm. […] If there is no interaction, only 615 nm fluorescence is produced. • 1) Experimental steps • a. Adding 4 µL of dilute compound solution to each well of a 384-well microplate; • a. Adding 4 µL of 4X P53 working solution to each well of the 384-well microplate; • c. Sealing the 384-well microplate and equilibrating the system at room temperature for 60 min; • d. Adding 4 µl of biotin DNA solution to the 384-well microplate; • e. Adding 4 µl of 4X test solution (MAb Anti-6His-Eu and streptavidin-d2) to each well of the 384-well microplate; • f. Incubating overnight in the dark; and • g. Reading data of 665 nm and 615 nm wavelengths on the BMG multifunctional microplate reader. • 2) Data analysis • a. Calculating the ratio for each well (Ratio665 nm/615 nm-Ratiobackground); • b. Calculating the activity percentage (%activity) as follows: C = (Ave_Ac−Ave_Ba)/(Ave_Dc−Ave_Bd) [formula] R data = (A−Ave_Ba−CD)/(D−Ave_Bd)*(Ave_Dc−Ave_Bd) [formula] % Activity = R data/Ave_VC*100 [formula] • A: Fluorescence intensity of the sample at 665 nm; D: Fluorescence intensity of the sample at 615 nm; • Ba: Background fluorescence intensity of the culture plate at 665 nm; Bd: Background fluorescence intensity of the culture plate at 615 nm; • Dc: Background fluorescence intensity of HIS-E at 615 nm; Ac: Background fluorescence intensity of streptavidin-d2 at 665 nm); and • c. Calculating SC150 and plotting dose-effect curve
# Compared to the absence of the compound of the present invention, the activation percentage of binding of the p53 mutant protein to DNA in the presence of the compound of the present invention is expressed as SC150, which indicates the concentration of the compound required to increase the DNA binding activity of the p53 mutant protein by 50%. The SC150 is calculated using Prism™.
row,SMILES,SC150
1,CN1CC[C@@H](Nc2cccc3c(CC(F)(F)F)c(C#CCNC(=O)c4cnn(C5(C)CCOCC5)c4)nn23)[C@@H](F)C1 [Compound 014],13 nM
2,"CN1CC[C@@H](Nc2cccc3c(CC(F)(F)F)c(C#CCNC(=O)c4cnn(-c5ccccc5)c4)nn23)[C@@H](F)C1 [Compound 015, N-[3-(7-{[(3S,4R)-3-fluoro-l-methylpiperidin-4-yl]amino}-3-(2,2,2-trifluoroethyl)pyrazolo[1,5-a]pyridin-2-yl)prop-2-yn-1-yl]-1-phenyl-1H-pyrazole-4-carboxamide]",62 nM
3,"COCC(C)(C)n1cc(C(=O)NCC#Cc2nn3c(N[C@@H]4CCN(C)C[C@@H]4F)cccc3c2CC(F)(F)F)cn1 [Compound 022, N-[3-(7-{[(3S,4R)-3-fluoro-1-methylpiperidin-4-yl]amino}-3-(2,2,2-trifluoroethyl)pyrazolo[1,5-a]pyridin-2-yl)prop-2-yn-1-yl]-1-(1-methoxy-2-methylpropan-2-yl)-1H-pyrazole-4-carboxamide]",8 nM
4,"CN1CC[C@@H](Nc2cccc3c(CC(F)(F)F)c(C#CCNC(=O)c4cnn(C(F)(F)F)c4)nn23)[C@@H](F)C1 [Compound 024, N-[3-(7-{[(3S,4R)-3-fluoro-1-methylpiperidin-4-yl]amino}-3-(2,2,2-trifluoroethyl)pyrazolo[1,5-a]pyridin-2-yl)prop-2-yn-1-yl]-1-(trifluoromethyl)-1H-pyrazole-4-carboxamide]",58 nM
5,"CC(n1cc(C(=O)NCC#Cc2nn3c(N[C@@H]4CCN(C)C[C@@H]4F)cccc3c2CC(F)(F)F)cn1)C(F)(F)F (stereo partly drawn) [Compound 029, N-[3-(7-{[(3S,4R)-3-fluoro-1-methylpiperidin-4-yl]amino}-3-(2,2,2-trifluoroethyl)pyrazolo[1,5-a]pyridin-2-yl)prop-2-yn-1-yl]-1-(1,1,1-trifluoroprop-2-yl)-1H-pyrazole-4-carboxamide]",15 nM
6,CN1CC[C@@H](Nc2cccc3c(CC(F)(F)F)c(C#CCNC(=O)c4cnn(CC(F)(F)F)c4)nn23)[C@@H](F)C1 [Compound 030],18 nM
7,COc1nn(C(C)(C)C)cc1C(=O)NCC#Cc1nn2c(N[C@@H]3CCN(C)C[C@@H]3F)cccc2c1CC(F)(F)F [Compound 043],86 nM
8,"COc1cccc(C(=O)NCC#Cc2nn3c(N[C@@H]4CCN(C)C[C@@H]4F)cccc3c2CC(F)(F)F)c1 [Compound 072, N-[3-(7-{[(3S,4R)-3-fluoro-1-methylpiperidin-4-yl]amino}-3-(2,2,2-trifluoroethyl)pyrazolo[1,5-a]pyridin-2-yl)prop-2-yn-1-yl]-3-methoxybenzamide]",41 nM
9,"CN1CC[C@@H](Nc2cccc3c(CC(F)(F)F)c(C#CCNC(=O)c4ccccn4)nn23)[C@@H](F)C1 [Compound 075, N-[3-(7-{[(3S,4R)-3-fluoro-1-methylpiperidin-4-yl]amino}-3-(2,2,2-trifluoroethyl)pyrazolo[1,5-a]pyridin-2-yl)prop-2-yn-1-yl]pyridine-2-carboxamide]",95 nM
10,"CN1CC[C@@H](Nc2cccc3c(CC(F)(F)F)c(C#CCNC(=O)c4ccc(F)cc4)nn23)[C@@H](F)C1 [Compound 076, 4-fluoro-N-[3-(7-{[(3S,4R)-3-fluoro-1-methylpiperidin-4-yl]amino}-3-(2,2,2-trifluoroethyl)pyrazolo[1,5-a]pyridin-2-yl)prop-2-yn-1-yl]benzamide]",75 nM
11,"CN1CC[C@@H](Nc2cccc3c(CC(F)(F)F)c(C#CCNC(=O)c4cn(C(C)(C)C)nn4)nn23)[C@@H](F)C1 [Compound 142, 1-tert-butyl-N-[3-(7-{[(3S,4R)-3-fluoro-1-methylpiperidin-4-yl]amino}-3-(2,2,2-trifluoroethyl)pyrazolo[1,5-a]pyridin-2-yl)prop-2-yn-1-yl]-1H-1,2,3-triazole-4-carboxamide]",29 nM
12,"CN1CC[C@@H](Nc2cccc3c(CC(F)(F)F)c(C#CCNC(=O)c4nnn(C(C)(C)C)n4)nn23)[C@@H](F)C1 [Compound 145, 2-tert-butyl-N-[3-(7-{[(3S,4R)-3-fluoro-1-methylpiperidin-4-yl]amino}-3-(2,2,2-trifluoroethyl)pyrazolo[1,5-a]pyridin-2-yl)prop-2-yn-1-yl]-2H-tetrazole-5-carboxamide]",50 nM
13,"CN1CC[C@@H](Nc2cccc3c(CC(F)(F)F)c(C#CCNC(=O)c4cnn(C(C)(C)C(F)(F)F)c4)nn23)[C@@H](F)C1 [Compound 148, N-[3-(7-{[(3S,4R)-3-fluoro-1-methylpiperidin-4-yl]amino}-3-(2,2,2-trifluoroethyl)pyrazolo[1,5-a]pyridin-2-yl)prop-2-yn-1-yl]-1-(1,1,1-trifluoro-2-methylprop-2-yl)-1H-pyrazole-4-carboxamide]",27 nM
14,"Cc1ccc(C(=O)NCC#Cc2nn3c(N[C@@H]4CCN(C)C[C@@H]4F)cccc3c2CC(F)(F)F)cc1 [Compound 160, N-[3-(7-{[(3S,4R)-3-fluoro-1-methylpiperidin-4-yl]amino}-3-(2,2,2-trifluoroethyl)pyrazolo[1,5-a]pyridin-2-yl)prop-2-yn-1-yl]-4-methylbenzamide]",84 nM
15,"CN1CC[C@@H](Nc2cccc3c(CC(F)(F)F)c(C#CCNC(=O)c4cnn(C(C)(C)CF)c4)nn23)[C@@H](F)C1 [Compound 234, N-[3-(7-{[(3S,4R)-3-fluoro-1-methylpiperidin-4-yl]amino}-3-(2,2,2-trifluoroethyl)pyrazolo[1,5-a]pyridin-2-yl)prop-2-yn-1-yl]-1-(1-fluoro-2-methylpropan-2-yl)-1H-pyrazole-4-carboxamide]",21 nM
16,"CN1CC[C@@H](Nc2cccc3c(CC(F)(F)F)c(C#CCNC(=O)C4C5COCC54)nn23)[C@@H](F)C1 (stereo partly drawn) [Compound 240, N-[3-(7-{[(3S,4R)-3-fluoro-1-methylpiperidin-4-yl]amino}-3-(2,2,2-trifluoroethyl)pyrazolo[1,5-a]pyridin-2-yl)prop-2-yn-1-yl]-3-oxabicyclo[3.1.0]hexane-6-carboxamide]",75 nM
17,"CN1CC[C@@H](Nc2cccc3c(CC(F)(F)F)c(C#CCNC(=O)C4CC45CC5)nn23)[C@@H](F)C1 (stereo partly drawn) [Compound 241, N-[3-(7-{[(3S,4R)-3-fluoro-1-methylpiperidin-4-yl]amino}-3-(2,2,2-trifluoroethyl)pyrazolo[1,5-a]pyridin-2-yl)prop-2-yn-1-yl]spiro[2.2]pentane-1-carboxamide]",82 nM
18,"CN1CC[C@@H](Nc2cccc3c(CC(F)(F)F)c(C#CCNC(=O)c4cnn(C(C)(C)C#N)c4)nn23)[C@@H](F)C1 [Compound 248, 1-(1-cyano-1-methylethyl)-N-[3-(7-{[(3S,4R)-3-fluoro-1-methylpiperidin-4-yl]amino}-3-(2,2,2-trifluoroethyl)pyrazolo[1,5-a]pyridin-2-yl)prop-2-yn-1-yl]-1H-pyrazole-4-carboxamide]",14 nM
19,"CN1CC[C@@H](Nc2cccc3c(CC(F)(F)F)c(C#CCNC(=O)c4cnn(CC#N)c4)nn23)[C@@H](F)C1 [Compound 249, 1-cyanomethyl-N-[3-(7-{[(3S,4R)-3-fluoro-1-methylpiperidin-4-yl]amino}-3-(2,2,2-trifluoroethyl)pyrazolo[1,5-a]pyridin-2-yl)prop-2-yn-1-yl]-1H-pyrazole-4-carboxamide]",17 nM
20,"CN1CC[C@@H](Nc2cccc3c(CC(F)(F)F)c(C#CCNC(=O)c4ccc(=O)n(C)c4)nn23)[C@@H](F)C1 [Compound 265, N-[3-(7-{[(3S,4R)-3-fluoro-1-methylpiperidin-4-yl]amino}-3-(2,2,2-trifluoroethyl)pyrazolo[1,5-a]pyridin-2-yl)prop-2-yn-1-yl]-1-methyl-6-oxo-1,6-dihydropyridine-3-carboxamide]",40 nM
21,"COc1ccc(C(=O)NCC#Cc2nn3c(N[C@@H]4CCN(C)C[C@@H]4F)cccc3c2CC(F)(F)F)cn1 [Compound 266, N-(3-(7-{[(3S,4R)-3-fluoro-1-methylpiperidin-4-yl]amino}-3-(2,2,2-trifluoroethyl)pyrazolo[1,5-a]pyridin-2-yl)prop-2-yn-1-yl)-6-methoxynicotinamide]",46 nM
